Converted amounts (≈) assume the structure as drawn.
Columns and labels:
Treponema = test: treatment of pigs from a farm with pigs scour, Treponema-positive (Example VII); assay type: in vivo
Experimental: Pigs, from a farm where problems with pigs scour had existed for some time, were treated under the supervision of the local veterinary surgeon and the inspector of the Health Service Station. The pigs were divided into groups and treated for 4 days in the following manner.
Group 1: 66 pigs were treated with feed containing 100 ppm of tylosin;
Group 2: 34 pigs were treated with feed containing 25 ppm of dihydromocimycin;
Group 3: 40 pigs were treated with feed containing 50 ppm of dihydromocimycin; and
Group 4: 40 pigs were treated with feed containing 100 ppm of dihydromocimycin.
Before the treatment, all animals lost thin or very thin faeces. Samples thereof were investigated and found to be Treponema-positive, and Salmonella-negative. Sometimes worm eggs were found.

Mycoplasma gallisepticum = test: in vivo activity against Mycoplasma gallisepticum
[1] = test system: Clostridium welchii A 738; test: microbe, parasite or virus in culture; assay type: cell-based; details: A738, 18 h, read-out: Minimum inhibitory concentration
mice = test: Acute toxicity in mice; assay type: in vivo
From the text: The toxicity of the antibiotic has been studied in various animals.

Actinobacillus equuli = test: activity against Actinobacillus equuli (in words); assay type: cell-based
[2] = test system: human-pathogenic microorganisms; test: in vitro activity against human-pathogenic microorganisms; assay type: cell-based; details: summary of Table II
Experimental: The microbiological activity of the antibiotic preparation towards a number of micoorganisms has been determined by a micro liquid serial dilution test:
A stock solution of the test compounds at a concentration of 200 μg/ml in 0.05 molar phosphate buffer at a pH of 6.5 was prepared and serial 1:1 dilutions were made with a liquid medium inoculated with the test organism, using conventional glass spot-test plates. The plates were incubated 18 hours at 30° C or 37° C. The minimum inhibitory concentration (MIC) which is the smallest concentration of compound completely inhibiting the growth of the test organism is read and calculated in μg/ml.

[3] = Stability of the solid antibiotic; assay type: physicochemical; details: for stable (solid): 100% relative humidity
[4] = test system: Brucella melitensis A 488; test: microbe, parasite or virus in culture; assay type: cell-based; details: A488, 18 h, read-out: Minimum inhibitory concentration

Compound	liveliness of treated animals (Treponema; 25-100 ppm in feed)	curing of Treponema dysentery, compared with tylosin (Treponema; 25 ppm dihydromocimycin vs 100 ppm tylosin)	time to cure (Treponema; dihydromocimycin 25 ppm in feed (group 2))	time to cure (Treponema; dihydromocimycin 50 ppm in feed (group 3))	faeces (Treponema; dihydromocimycin 100 ppm in feed, one day after the start of treatment)	aversion to feed (Treponema; feed containing dihydromocimycin)	activity against Mycoplasma gallisepticum in vivo (Mycoplasma gallisepticum)	MIC [1] [µg/mL]	lethality (mice; 1,000 mg/kg i.p., mice)	acute toxicity (mice; various animals)	activity (Actinobacillus equuli)	activity against a number of human-pathogenic microorganisms [2]	no loss in activity of the solid ([3]; 25° C and 37° C, low relative humidities)	stable (solid) ([3]; 25° C) [months]	stable (solid) ([3]; 37° C) [months]	MIC [4] [µg/mL]
CC=CC=CC1OC(O)(C(CC)C(=O)NCC=CC=C(C)C(OC)C(C)C2OC(C=CC=CC=C(C)C(=O)C3=C(O)CCNC3=O)C(O)C2O)C(O)C(O)C1(C)C (stereo not shown) [dihydromocimycin]	much more lively than before the treatment	better than a dosage of 100 ppm of tylosin	cured in periods lying between those of groups 1 and 4	cured in periods lying between those of groups 1 and 4	normal	not averse to feed containing dihydromocimycin	–	–	–	–	–	–	–	–	–	–
CC=CC=CC1OC(O)(C(CC)C(=O)NCC=CC=C(C)C(OC)C(C)C2OC(C=CC=CC=C(C)C(=O)c3c(O)cc[nH]c3=O)C(O)C2O)C(O)C(O)C1(C)C (stereo not shown) [mocimycin]	–	–	–	–	–	–	no activity	10 (≈ 12.5 µM)	does not kill mice	very low	active	almost no activity	at least 5 months	3	2	1 (≈ 1.25 µM)

— patent publication US4062948A, “Dihydromocimycin antibiotics” (Gist-Brocades N.V., priority 1970, dated 1977)
